The target of test [1] is T1, recombinant human ALK5 (TGF-βR1) protein (Homo sapiens, UniProt P36897).
T1 construct: purchased Life Technologies PR9075A
T1 sequence (P36897 34-503): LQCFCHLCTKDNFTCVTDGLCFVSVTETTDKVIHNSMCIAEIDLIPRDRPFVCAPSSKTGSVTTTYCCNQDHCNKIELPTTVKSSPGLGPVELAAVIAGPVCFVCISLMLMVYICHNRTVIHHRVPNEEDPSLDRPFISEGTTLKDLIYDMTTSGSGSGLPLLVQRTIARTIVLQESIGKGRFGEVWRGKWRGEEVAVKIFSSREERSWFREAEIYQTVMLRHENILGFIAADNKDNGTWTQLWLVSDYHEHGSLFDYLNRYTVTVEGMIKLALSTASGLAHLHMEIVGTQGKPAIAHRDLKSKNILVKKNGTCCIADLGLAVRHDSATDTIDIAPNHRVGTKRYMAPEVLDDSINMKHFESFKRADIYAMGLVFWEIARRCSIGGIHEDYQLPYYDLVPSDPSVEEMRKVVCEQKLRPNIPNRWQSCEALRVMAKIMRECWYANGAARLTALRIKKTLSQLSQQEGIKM
The test is described as follows: Biochemical ALK5 (TGF-βR1) assay to measure pKi (LANCE Ultra ULight kinase assay). Conditions: apparent pKi from pIC50 by Cheng-Prusoff, read-out: ALK5 pKi (converted). The method, boiled down: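 Dose range 10 μM–25 pM; enzyme + compound 60 min RT; ATP added (5× stock 125 μM, 2 mM DTT); 60 min 37 °C; stop with EDTA + Eu anti-phospho-Topo IIα Thr1342 Ab; TR-FRET ex 320/340, em 665 nm. 4-param pIC50 → pKi (Cheng-Prusoff).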

Test [2] relates to TGF-β-stimulated SMAD3 phosphorylation in BEAS-2B cells. The test is described as follows: Cellular ALK5 potency assay, inhibition of TGF-β stimulated pSMAD3 formation in BEAS-2B cells. It is filed as cell-based. Conditions: Homo sapiens; inhibition of TGF-β stimulated pSMAD3 formation, BEAS-2B cells; read-out: BEAS2B pIC50 (converted). The essentials:
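SMAD3 phosphorylation was measured by AlphaLISA after 30 min TGF-β stimulation (10 ng/mL final) of BEAS-2B cells preincubated 1 h with compound at 37 °C. Results given as pIC50.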

Consider `Cc1cccc(-c2[nH]ncc2-c2ccc3nccc(C(=O)O[C@H]4CC[C@@H](N)CC4)c3c2)n1` [Compound 1199, (4-aminocyclohexyl) 6-[5-(6-methyl-2-pyridyl)-1H-pyrazol-4-yl]quinoline-4-carboxylate], for which the Ki in test [1] is 3.98 to 31.6 nM. For the same compound, in test [2], the IC50 is 200 to 1260 nM.

As to `Cc1cccc(-c2n[nH]cc2-c2ccc3ncc(-c4cc(C(F)(F)F)n[nH]4)cc3n2)n1` [Compound 139, 2-[3-(6-methyl-2-pyridyl)-1H-pyrazol-4-yl]-7-[3-(trifluoromethyl)-1H-pyrazol-5-yl]-1,5-naphthyridine], in test [1], the Ki is 0.0398 to 0.316 nM. Further, in test [2], the IC50 is 25.1 to 158 nM.

Consider `Cc1nc(-c2n[nH]cc2-c2ccc3ncc(-c4cnn(C[C@H]5CCC[C@@H](N)C5)c4)cc3n2)ccc1F` (racemic) [Compound 463, rac-(1R,3S)-3-[[4-[6-[3-(5-fluoro-6-methyl-2-pyridyl)-1H-pyrazol-4-yl]-1,5-naphthyridin-3-yl]pyrazol-1-yl]methyl]cyclohexanamine], for which, in test [1], the Ki is < 0.0316 nM. Besides, the IC50 in test [2] is 25.1 to 158 nM.

With `Cc1cccc(-c2[nH]cnc2-c2ccc3ncc(C4=CCN(C(=O)C5CNC5)CC4)cc3c2)n1` [Compound 1036, azetidin-3-yl-[4-[6-[5-(6-methyl-2-pyridyl)-1H-imidazol-4-yl]-3-quinolyl]-3,6-dihydro-2H-pyridin-1-yl]methanone], in test [1], the Ki is 0.0398 to 0.316 nM. Moreover, in test [2], the IC50 was 200 to 1260 nM.

Turning to `Cc1cccc(-c2[nH]ncc2-c2ccc3ncc(C(=O)OCCN4C[C@@H](C)N[C@@H](C)C4)cc3c2)n1` [Compound 1238, 2-[(3S,5R)-3,5-dimethylpiperazin-1-yl]ethyl 6-[5-(6-methyl-2-pyridyl)-1H-pyrazol-4-yl]quinoline-3-carboxylate], the Ki in test [1] is 0.0398 to 0.316 nM. The IC50 in test [2] was 25.1 to 158 nM.

For `Cc1cccc(-c2[nH]cnc2-c2ccc3ncc(-c4cncc(C(=O)OC5CNC5)c4)cc3c2)n1` [Compound 577, azetidin-3-yl 5-[6-[5-(6-methyl-2-pyridyl)-1H-imidazol-4-yl]-3-quinolyl]pyridine-3-carboxylate], the Ki in test [1] is 0.0398 to 0.316 nM. The IC50 in test [2] was 200 to 1260 nM.

`Cc1cccc(-c2[nH]cnc2-c2ccc3ncc(-c4cc(C(=O)OCCN5CCNCC5)ccn4)cc3c2)n1` [Compound 1123, 2-piperazin-1-ylethyl 2-[6-[5-(6-methyl-2-pyridyl)-1H-imidazol-4-yl]-3-quinolyl]pyridine-4-carboxylate]: in test [1], the Ki is 0.0398 to 0.316 nM. In test [2], the IC50 was 25.1 to 158 nM.

Consider `Cc1cccc(-c2n[nH]cc2-c2ccc3nccc(-c4nc(CO)co4)c3n2)n1` [Compound 852, [2-[6-[3-(6-methyl-2-pyridyl)-1H-pyrazol-4-yl]-1,5-naphthyridin-4-yl]oxazol-4-yl]methanol], for which the Ki in test [1] is 0.0398 to 0.316 nM. Besides, the IC50 in test [2] is 25.1 to 158 nM.

Take `Cc1cccc(-c2[nH]cnc2-c2ccc3ncc(N4CC(N)C4)cc3c2)n1` [Compound 460, 1-[6-[5-(6-methyl-2-pyridyl)-1H-imidazol-4-yl]-3-quinolyl]azetidin-3-amine]: the Ki in test [1] was 0.0398 to 0.316 nM. In addition, the IC50 in test [2] is 25.1 to 158 nM.

As for `Cc1cccc(-c2n[nH]cc2-c2ccc3ncc(N4CCC5(CCNC5)C4)cc3n2)n1` (stereo not shown) [Compound 10, 7-(2,7-diazaspiro[4.4]nonan-2-yl)-2-[3-(6-methyl-2-pyridyl)-1H-pyrazol-4-yl]-1,5-naphthyridine], in test [1], the Ki is 0.0398 to 0.316 nM. Further, the IC50 in test [2] is 200 to 1260 nM.

In the case of `Cc1cccc(-c2[nH]cnc2-c2ccc3ncc(-c4csc(C(=O)O[C@H]5CC[C@](C)(N)CC5)c4)cc3c2)n1` [Compound 1200, (4-amino-4-methyl-cyclohexyl) 4-[6-[5-(6-methyl-2-pyridyl)-1H-imidazol-4-yl]-3-quinolyl]thiophene-2-carboxylate], in test [1], the Ki was 0.0398 to 0.316 nM. For the same compound, in test [2], the IC50 is 25.1 to 158 nM.

Turning to `Cc1cccc(-c2n[nH]cc2-c2ccc3ncc(-c4cnc5n4CCN5)cc3n2)n1` [Compound 681, 7-(6,7-dihydro-5H-imidazo[1,2-a]imidazol-3-yl)-2-[3-(6-methyl-2-pyridyl)-1H-pyrazol-4-yl]-1,5-naphthyridine], the Ki in test [1] is < 0.0316 nM. In addition, the IC50 in test [2] was 25.1 to 158 nM.

With `Cc1cccc(-c2[nH]cnc2-c2ccc3ncc(C(=O)OCCN4CC5(CCCNC5)C4)cc3c2)n1` [Compound 890, 2-(2,6-diazaspiro[3.5]nonan-2-yl)ethyl 6-(5-(6-methylpyridin-2-yl)-1H-imidazol-4-yl)quinoline-3-carboxylate], the Ki in test [1] is 0.398 to 3.16 nM. For the same compound, the IC50 in test [2] is 200 to 1260 nM.

For the compound `Cc1cccc(-c2[nH]cnc2-c2ccc3ncc(C(=O)O[C@H]4CC[C@@H](N)CC4)cc3c2)n1` [Compound 1066, (4-aminocyclohexyl) 6-[5-(6-methyl-2-pyridyl)-1H-imidazol-4-yl]quinoline-3-carboxylate], the Ki in test [1] was 0.398 to 3.16 nM. In addition, the IC50 in test [2] was 200 to 1260 nM.

In the case of `Cc1cccc(-c2n[nH]cc2-c2ccc3ncc(CNCCN4CCN(C(C)C)CC4)cc3n2)n1` [Compound 324, 2-(4-isopropylpiperazin-1-yl)-N-[[6-[3-(6-methyl-2-pyridyl)-1H-pyrazol-4-yl]-1,5-naphthyridin-3-yl]methyl]ethanamine], the Ki in test [1] is 0.398 to 3.16 nM. Moreover, the IC50 in test [2] was 25.1 to 158 nM.

With `Cc1cccc(-c2n[nH]cc2-c2ccc3ncc(N4CC5CN(C)CC54)cc3n2)n1` (stereo not shown) [Compound 304, 7-(3-methyl-3,6-diazabicyclo[3.2.0]heptan-6-yl)-2-[3-(6-methyl-2-pyridyl)-1H-pyrazol-4-yl]-1,5-naphthyridine], the Ki in test [1] is 0.0398 to 0.316 nM. Besides, in test [2], the IC50 was 25.1 to 158 nM.

Regarding `Cc1cccc(-c2n[nH]cc2-c2ccc3ncc(-c4ccccc4)cc3n2)n1` [Compound 398, 2-[3-(6-methyl-2-pyridyl)-1H-pyrazol-4-yl]-7-phenyl-1,5-naphthyridine], in test [1], the Ki was < 0.0316 nM. In addition, the IC50 in test [2] was < 20 nM.

`Cc1cccc(-c2[nH]cnc2-c2ccc3ncc(-c4ncc(C(=O)OC5CNC5)s4)cc3c2)n1` [Compound 1018, azetidin-3-yl 2-(6-(5-(6-methylpyridin-2-yl)-1H-imidazol-4-yl)quinolin-3-yl)thiazole-5-carboxylate]: the Ki in test [1] is 0.0398 to 0.316 nM. In test [2], the IC50 was 25.1 to 158 nM.

`CNCCn1cc(-c2cnc3ccc(-c4nn[nH]c4-c4cccc(C)n4)nc3c2)cn1` [Compound 29, N-methyl-2-(4-(6-(5-(6-methylpyridin-2-yl)-1H-1,2,3-triazol-4-yl)-1,5-naphthyridin-3-yl)-1H-pyrazol-1-yl)ethan-1-amine]: the Ki in test [1] is < 0.0316 nM. Also, the IC50 in test [2] is 200 to 1260 nM.

Take `CNCCn1ccc(-c2cnc3ccc(-c4nc[nH]c4-c4cccc(C)n4)cc3c2)n1` [Compound 494, N-methyl-2-[3-[6-[5-(6-methyl-2-pyridyl)-1H-imidazol-4-yl]-3-quinolyl]pyrazol-1-yl]ethanamine]: in test [1], the Ki was 0.0398 to 0.316 nM. In test [2], the IC50 is 25.1 to 158 nM.

Turning to `Cc1cccc(-c2[nH]cnc2-c2ccc3ncc(-c4cc(C(=O)O[C@H]5CCNC5)ccn4)cc3c2)n1` [Compound 1060, [(3S)-pyrrolidin-3-yl] 2-[6-[5-(6-methyl-2-pyridyl)-1H-imidazol-4-yl]-3-quinolyl]pyridine-4-carboxylate], the Ki in test [1] was 0.0398 to 0.316 nM. Besides, the IC50 in test [2] was 25.1 to 158 nM.

On to `Cc1cccc(-c2n[nH]cc2-c2ccc3ncc(N4CCN(CCN)CC4)cc3n2)n1` [Compound 281, 2-[4-[6-[3-(6-methyl-2-pyridyl)-1H-pyrazol-4-yl]-1,5-naphthyridin-3-yl]piperazin-1-yl]ethanamine], for which the Ki in test [1] was < 0.0316 nM. Besides, the IC50 in test [2] was 200 to 1260 nM.

As for `Cc1cccc(-c2[nH]cnc2-c2ccc3ncc(-c4csc(C(=O)OC5CNC5)n4)cc3c2)n1` [Compound 1046, azetidin-3-yl 4-[6-[5-(6-methyl-2-pyridyl)-1H-imidazol-4-yl]-3-quinolyl]thiazole-2-carboxylate], the Ki in test [1] was 0.0398 to 0.316 nM. Also, in test [2], the IC50 was 25.1 to 158 nM.

With `Cc1cccc(-c2n[nH]cc2-c2ccc3ncc(CCC(=O)N4CCOCC4)cc3n2)n1` [Compound 385, 3-[6-[3-(6-methyl-2-pyridyl)-1H-pyrazol-4-yl]-1,5-naphthyridin-3-yl]-1-morpholino-propan-1-one], the Ki in test [1] is 0.398 to 3.16 nM. In test [2], the IC50 is 25.1 to 158 nM.

On to `CCOC(=O)CCN(C)c1cnc2ccc(-c3c[nH]nc3-c3cccc(C)n3)nc2c1` [Compound 601, ethyl 3-[methyl-[6-[3-(6-methyl-2-pyridyl)-1H-pyrazol-4-yl]-1,5-naphthyridin-3-yl]amino]propanoate], for which the Ki in test [1] is 3.98 to 31.6 nM. Moreover, the IC50 in test [2] is 200 to 1260 nM.

For the compound `CNCCn1cc(-c2cnc3ccc(-c4nc[nH]c4-c4ccc(F)c(C)n4)cc3c2)cn1` [Compound 401, 2-[4-[6-[5-(5-fluoro-6-methyl-2-pyridyl)-1H-imidazol-4-yl]-3-quinolyl]pyrazol-1-yl]-N-methyl-ethanamine], the Ki in test [1] is < 0.0316 nM. In test [2], the IC50 was 25.1 to 158 nM.

These data come from US11590116B2 (THERAVANCE BIOPHARMA R&D IP, LLC, priority 2019, dated 2023).
